Earlier results, collected in patent US20050049209A1, “Pharmaceutical compositions for delivering macrolides” (priority 2003, published 2005).

Settings: can be solubilized at pH<5 as salt

CC[C@H]1OC(=O)[C@H](C)[C@@H](OC2CC(C)(OC)C(O)C(C)O2)[C@H](C)[C@@H](OC2OC(C)CC(N(C)C)C2O)[C@](C)(OC)C[C@@H](C)C(=O)[C@H](C)[C@@H](O)[C@]1(C)O (stereo partly shown) [Clarithromycin freebase, 6-O-methyl-erythromycin]
solubility in water: substantially insoluble
